ChEMBL document CHEMBL1150434, “Semisynthetic modification of hygromycin A. 1. Synthesis and antibacterial activity of vinyl methyl and amide analogs” (1992)
Converted amounts (≈) assume the structure as drawn. The source made the active and inactive calls. The calls are words filed in the database; no cut-off is given here.

These molecules were tested on Brachyspira hyodysenteriae (assay: Tested for antibacterial activity against Serpulina hyodysenteriae at a concentration of up to 200 ug/mL; IA= Inactive).
Assay type: functional, organism-based
For `C/C(=C\c1ccc(O[C@@H]2O[C@H]([C@H](C)O)[C@@H](O)[C@@H]2O)c(O)c1)C(=O)NC1CCCCC1`, the Activity was “inactive”.
`C/C(=C\c1ccc(O[C@@H]2O[C@H]([C@H](C)O)[C@@H](O)[C@@H]2O)c(O)c1)C(=O)N[C@H]1C(O)O[C@H](CO)[C@@H](O)[C@@H]1O` (some centres not stated) was tested, and the Activity was “inactive”.
`C/C(=C\c1ccc(O[C@@H]2O[C@H]([C@H](C)O)[C@@H](O)[C@@H]2O)c(O)c1)C(=O)N[C@H]1CC[C@H](O)CC1` was tested, and the Activity was “inactive”.
With `C/C(=C\c1ccc(O[C@@H]2O[C@H]([C@H](C)O)[C@@H](O)[C@@H]2O)c(O)c1)C(=O)N[C@@H]1CCC[C@@H]1O` the Activity was “inactive”.
For `C/C(=C\c1ccc(O[C@@H]2O[C@H]([C@H](C)O)[C@@H](O)[C@@H]2O)c(O)c1)C(=O)NC(CO)CO`, the Activity was “inactive”.
`C/C(=C\c1ccc(O[C@@H]2O[C@H]([C@H](C)O)[C@@H](O)[C@@H]2O)c(O)c1)C(=O)N[C@@H]1CCCC[C@@H]1O` was tested, and the Activity was “inactive”.
With `C/C(=C\c1ccc(O[C@@H]2O[C@H]([C@H](C)O)[C@@H](O)[C@@H]2O)c(O)c1)C(=O)NCCO` the Activity was “inactive”.
`C/C(=C\c1ccc(O[C@@H]2O[C@H]([C@H](C)O)[C@@H](O)[C@@H]2O)c(O)c1)C(=O)N1CCN(C)CC1` was tested, and the Activity was “inactive”.
With `C/C(=C\c1ccc(O[C@@H]2O[C@H]([C@H](C)O)[C@@H](O)[C@@H]2O)c(O)c1)C(=O)NC1(CO)CCCC1` the Activity was “inactive”.
`C/C(=C\c1ccc(O[C@@H]2O[C@H]([C@H](C)O)[C@@H](O)[C@@H]2O)c(O)c1)C(=O)N[C@@H]1CCCC[C@H]1O` was tested, and the Activity was “inactive”.
With `C/C(=C\c1ccc(O[C@@H]2O[C@H]([C@H](C)O)[C@@H](O)[C@@H]2O)c(O)c1)C(=O)N1CCOCC1` the Activity was “inactive”.
`C/C(=C\c1ccc(O[C@@H]2O[C@H]([C@H](C)O)[C@@H](O)[C@@H]2O)c(O)c1)C(=O)N[C@@H]1CCC[C@H]1O` was tested, and the Activity was “inactive”.
For `C/C(=C\c1ccc(O[C@@H]2O[C@H]([C@H](C)O)[C@@H](O)[C@@H]2O)c(O)c1)C(=O)N1CCC[C@H]1CO`, the Activity was “inactive”.
In the case of `C/C(=C\c1ccc(O[C@@H]2O[C@H]([C@H](C)O)[C@@H](O)[C@@H]2O)c(O)c1)C(=O)N1CCNCC1`, the Activity is reported as “inactive”.
`C/C(=C\c1ccc(O[C@@H]2O[C@H]([C@H](C)O)[C@@H](O)[C@@H]2O)c(O)c1)C(=O)N1CCN(C(=O)N2CCNCC2)CC1` was tested, and the Activity was “inactive”.
In the case of `C/C(=C\c1ccc(O[C@@H]2O[C@H]([C@H](C)O)[C@@H](O)[C@@H]2O)c(O)c1)C(=O)N1CCCCC1CO` (some centres not stated), the Activity is reported as “inactive”.
In the case of `C/C(=C\c1ccc(O[C@@H]2O[C@H]([C@H](C)O)[C@@H](O)[C@@H]2O)c(O)c1)C(=O)N[C@@H]1C(O)O[C@H](CO)[C@@H](O)[C@@H]1O` (some centres not stated), the Activity is reported as “inactive”.
In the case of `C/C(=C\c1ccc(O[C@@H]2O[C@H]([C@H](C)O)[C@@H](O)[C@@H]2O)c(O)c1)C(=O)N1CCC[C@H]1C(=O)O`, the Activity is reported as “inactive”.

These molecules were tested on Brachyspira hyodysenteriae (assay: Antibacterial activity against Serpulina hyodysenteriae).
Assay type: functional
`CC/C(=C\c1ccc(O[C@@H]2O[C@H]([C@@H](C)O)[C@@H](O)[C@@H]2O)c(O)c1)C(=O)N[C@@H]1[C@H](O)[C@@H](O)[C@H]2OCO[C@H]2[C@@H]1O` showed an MIC of 3.13 µg/mL (≈ 5.93 µM).
Work on `C[C@@H](O)[C@H]1O[C@@H](Oc2ccc(/C=C/C(=O)N[C@@H]3[C@H](O)[C@@H](O)[C@H]4OCO[C@H]4[C@@H]3O)cc2O)[C@@H](O)[C@@H]1O` yielded an MIC of 100 µg/mL (≈ 200 µM).
For `CC(=O)[C@H]1O[C@@H](Oc2ccc(C=C(C)C(=O)N[C@@H]3[C@H](O)[C@@H](O)[C@H]4OCO[C@H]4[C@@H]3O)cc2O)[C@@H](O)[C@@H]1O` [HYGROMYCIN A], the MIC was 0.78 µg/mL (≈ 1.52 µM).
In the case of `C[C@@H](O)[C@H]1O[C@@H](Oc2ccc(/C=C(\Br)C(=O)N[C@@H]3[C@H](O)[C@@H](O)[C@H]4OCO[C@H]4[C@@H]3O)cc2O)[C@@H](O)[C@@H]1O`, the MIC is reported as 3.13 µg/mL (≈ 5.41 µM).
`C/C(=C\c1ccc(O[C@@H]2O[C@H]([C@@H](C)O)[C@@H](O)[C@@H]2O)c(O)c1)C(=O)N[C@@H]1[C@H](O)[C@@H](O)[C@H]2OCO[C@H]2[C@@H]1O` showed an MIC of 3.13 µg/mL (≈ 6.1 µM).
`C#CC/C(=C\c1ccc(O[C@@H]2O[C@H]([C@@H](C)O)[C@@H](O)[C@@H]2O)c(O)c1)C(=O)N[C@@H]1[C@H](O)[C@@H](O)[C@H]2OCO[C@H]2[C@@H]1O` gave an MIC of 100 µg/mL (≈ 186 µM).
For `C[C@@H](O)[C@H]1O[C@@H](Oc2ccc(/C=C(\Cl)C(=O)N[C@@H]3[C@H](O)[C@@H](O)[C@H]4OCO[C@H]4[C@@H]3O)cc2O)[C@@H](O)[C@@H]1O`, the MIC was 6.25 µg/mL (≈ 11.7 µM).
`C=CC/C(=C\c1ccc(O[C@@H]2O[C@H]([C@@H](C)O)[C@@H](O)[C@@H]2O)c(O)c1)C(=O)N[C@@H]1[C@H](O)[C@@H](O)[C@H]2OCO[C@H]2[C@@H]1O` was tested, and the MIC was greater than 200 µg/mL.
`CCC/C(=C\c1ccc(O[C@@H]2O[C@H]([C@@H](C)O)[C@@H](O)[C@@H]2O)c(O)c1)C(=O)N[C@@H]1[C@H](O)[C@@H](O)[C@H]2OCO[C@H]2[C@@H]1O` showed an MIC greater than 200 µg/mL.
